Experimental data taken from ChEMBL document CHEMBL4145541, “Tricyclic pyrazolo[1,5-d][1,4]benzoxazepin-5(6H)-one scaffold derivatives: Synthesis and biological evaluation as selective BuChE inhibitors” (Eur J Med Chem, 2018).
Calls of active or inactive are those of the source. No cut-off for these calls is given here.

Key:
[1] = biological target: Acetylcholinesterase (Electrophorus electricus, UniProt O42275); test: (§1) Inhibition of electric eel AChE at 20 uM using acetylthiocholine iodide as substrate preincubated for 20 mins followed by substrate addition and measured after 20 mins by Ellman's method relative to control; details: 20 min, 20 µM
[2] = biological target: T1, Cholinesterase (Equus caballus, UniProt P81908); test: Inhibition of equine serum BuChE using butyrylthiocholine iodide as substrate preincubated for 20 mins followed by substrate addition and measured after 20 mins by Ellman's method
[3] = biological target: Cholinesterase (Equus caballus) (UniProt P81908); test: Inhibition of equine serum BuChE at 20 uM using butyrylthiocholine iodide as substrate preincubated for 20 mins followed by substrate addition and measured after 20 mins by Ellman's method relative to control
[4] = biological target: acetylcholinesterase (AChE) (Electrophorus electricus, UniProt O42275); test: as §1; details: electric eel acetylcholinesterase enzyme, probe acetylthiocholine iodide
[5] = Octanol-water partition coefficient, log P of the compound at pH 7.4 after 24 hrs by shake flask method; format: physicochemical
[6] = Cytotoxicity against rat PC12 cells assessed as cell viability up to 50 uM after 24 hrs by MTT assay relative to control
[7] = biological target: T1, Cholinesterase; test: Mixed-type inhibition of equine serum BuChE using varying levels of butyrylthiocholine iodide as substrate preincubated for 20 mins followed by substrate addition and measured after 20 mins by Lineweaver-Burk plot analysis; details: read-out: Ki(app)
[8] = tested on: PC-12; test: Neuroprotection against H2O2-induced oxidative stress in rat PC12 cells assessed as cell viability at 25 uM preincubated for 3 hrs followed by H2O2 addition and measured after 24 hrs by MTT assay relative to control; format: functional; details: read-out: Activity
[9] = biological target: T1, Cholinesterase; test: Non-competitive inhibition of equine serum BuChE using varying levels of butyrylthiocholine iodide as substrate preincubated for 20 mins followed by substrate addition and measured after 20 mins by Lineweaver-Burk plot analysis; details: read-out: Ki(app)

Chain of Cholinesterase (Equus caballus) (P81908 whole entry): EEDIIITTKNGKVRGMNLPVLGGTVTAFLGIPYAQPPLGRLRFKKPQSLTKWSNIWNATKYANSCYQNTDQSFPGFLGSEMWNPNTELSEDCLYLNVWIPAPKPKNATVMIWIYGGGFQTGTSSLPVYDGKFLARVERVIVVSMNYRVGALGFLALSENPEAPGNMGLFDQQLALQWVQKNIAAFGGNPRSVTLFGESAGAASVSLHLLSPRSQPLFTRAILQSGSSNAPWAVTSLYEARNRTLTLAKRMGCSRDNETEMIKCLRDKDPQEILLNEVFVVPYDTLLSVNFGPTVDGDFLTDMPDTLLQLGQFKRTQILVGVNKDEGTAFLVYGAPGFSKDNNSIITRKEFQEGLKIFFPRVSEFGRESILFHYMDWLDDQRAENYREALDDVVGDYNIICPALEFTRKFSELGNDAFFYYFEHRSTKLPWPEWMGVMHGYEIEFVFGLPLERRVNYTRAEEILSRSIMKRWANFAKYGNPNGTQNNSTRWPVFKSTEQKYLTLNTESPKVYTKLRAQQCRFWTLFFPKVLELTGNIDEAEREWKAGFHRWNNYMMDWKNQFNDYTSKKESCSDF
T1 sequence (P81908 whole entry): as above
Chain of Acetylcholinesterase (O42275 whole entry): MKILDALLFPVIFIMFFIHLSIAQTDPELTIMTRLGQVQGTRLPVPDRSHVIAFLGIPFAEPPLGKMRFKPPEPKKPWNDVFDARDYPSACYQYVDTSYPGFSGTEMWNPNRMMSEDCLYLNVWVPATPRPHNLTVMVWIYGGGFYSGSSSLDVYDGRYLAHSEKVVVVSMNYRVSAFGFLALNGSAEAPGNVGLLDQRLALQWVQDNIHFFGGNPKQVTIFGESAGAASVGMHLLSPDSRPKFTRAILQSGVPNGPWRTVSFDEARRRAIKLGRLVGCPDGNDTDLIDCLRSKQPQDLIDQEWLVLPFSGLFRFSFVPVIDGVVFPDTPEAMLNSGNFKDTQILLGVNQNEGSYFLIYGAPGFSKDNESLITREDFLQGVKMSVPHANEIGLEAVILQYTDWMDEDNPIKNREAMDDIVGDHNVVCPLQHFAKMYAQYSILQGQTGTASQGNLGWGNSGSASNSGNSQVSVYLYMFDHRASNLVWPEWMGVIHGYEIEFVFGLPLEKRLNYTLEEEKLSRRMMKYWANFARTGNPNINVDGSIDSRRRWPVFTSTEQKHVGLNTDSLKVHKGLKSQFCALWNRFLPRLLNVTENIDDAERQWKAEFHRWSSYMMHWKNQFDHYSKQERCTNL
Chain of acetylcholinesterase (AChE) (O42275 whole entry): as above

Compound	inhibition (INH) [1]	inhibition [3]	inhibition at 20 min, 20 µM [4]	further results
CC[C@@H]1Oc2c(Br)cc(Cl)cc2C2CC(C)=NN2C1=O (some centres undefined)	Not Active			IC50 [2]: 20.4 µM
CC[C@H]1Oc2c(Br)cc(Cl)cc2C2CC(C)=NN2C1=O (some centres undefined)	Not Active			IC50 [2]: 1.14 µM
CC1=NN2C(=O)C(C)Oc3ccc(Cl)cc3C2C1 (centres undefined)	Not Active	39%		
CCC1Oc2c(Cl)cc(Cl)cc2C2CC(C)=NN2C1=O (centres undefined)			26%	logD at 24 h [5]: 1.12; IC50 [2]: 4.67 µM
CC1Oc2ccc(Cl)cc2C2CC(c3ccc(F)cc3)=NN2C1=O (centres undefined)	Not Active	17%		
CC1=NN2C(=O)C(C)Oc3c(Br)cc(Br)cc3C2C1 (centres undefined)	Not Active	11%		
CC1Oc2c(Cl)cc(Cl)cc2C2CC(c3ccco3)=NN2C1=O (centres undefined)		23%	28%	
CC1=NN2C(=O)C(C)Oc3c(Cl)cc(Cl)cc3C2C1 (centres undefined)			22%	logD at 24 h [5]: 2.49; IC50 [2]: 5.95 µM
CC1=NN2C(=O)COc3c(Br)cc(Br)cc3C2C1 (centres undefined)	Not Active	24%		
CC1=NN2C(=O)C(C)Oc3ccc(C)cc3C2C1 (centres undefined)		1%	22%	
CC1=NN2C(=O)COc3ccc(C)cc3C2C1 (centres undefined)		inactive	24%	
COc1cccc2c1OCC(=O)N1N=C(C)CC21 (centres undefined)		2%	34%	
CCC1Oc2ccc(Br)cc2C2CC(C)=NN2C1=O (centres undefined)	Not Active	39%		logD at 24 h [5]: 1.11
O=C1COc2ccc(Br)cc2C2CC(c3ccco3)=NN12 (centres undefined)		20%	25%	
CC1=NN2C(=O)C(C)Oc3ccc(Br)cc3C2C1 (centres undefined)		18%	23%	
CC1=NN2C(=O)COc3ccc(Br)cc3C2C1 (centres undefined)		inactive	29%	
COc1cc2c(cc1OC)C(=O)C(CC1CCN(Cc3ccccc3)CC1)C2 (centres undefined) [DONEPEZIL]				viability at 24 h ([6]; pc-12): > 90%
CC1Oc2c(Br)cc(Br)cc2C2CC(c3ccc(F)cc3)=NN2C1=O (centres undefined)	Not Active	inactive		
CC1=NN2C(=O)COc3c(Br)cc(Cl)cc3C2C1 (centres undefined)		18%	32%	
CC1=NN2C(=O)COc3c(Cl)cc(Cl)cc3C2C1 (centres undefined)		31%	25%	
CC1=NN2C(=O)COc3ccc(Cl)cc3C2C1 (centres undefined)		inactive	2%	
CC1Oc2ccc(Br)cc2C2CC(c3ccc(F)cc3)=NN2C1=O (centres undefined)	Not Active	45%		
COc1cccc2c1OC(C)C(=O)N1N=C(C)CC21 (centres undefined)		inactive	24%	
CC1=NN2C(=O)C(C)Oc3c(Br)cc(Cl)cc3C2C1 (centres undefined)	Not Active			logD at 24 h [5]: 2.18; IC50 [2]: 11.1 µM
CCC1Oc2ccc(Cl)cc2C2CC(C)=NN2C1=O (centres undefined)	Not Active			logD at 24 h [5]: 1.05; IC50 [2]: 12.8 µM
CCC1Oc2c(Br)cc(Br)cc2C2CC(C)=NN2C1=O (centres undefined)			41%	logD at 24 h [5]: 1.08; IC50 [2]: 2.92 µM; Ki [7]: 7.6 µM
CCC1Oc2c(Br)cc(Cl)cc2C2CC(C)=NN2C1=O (centres undefined)	Not Active			viability at 25 µM [8]: 70%; Ki [9]: 1500 nM; logD at 24 h [5]: 1.57; viability at 24 h ([6]; PC12 cells): > 90%; IC50 [2]: 2.04 µM
